According to US12421294B2, “Truncated epiderimal growth factor receptor (EGFRt) for transduced t cell selection” (City of Hope, priority 2009, dated 2025):

Key:
control T cell line = assay: MPA resistance culture, control T cells without IMPDH2dm; assay type: cell-based, human; conditions: 1 uM MPA, control T cell line lacking IMPDH2dm
[1] = test system: CD19CAR^+EGFRt^+IMPDH2dm^+ Line E cells; assay: MPA resistance culture, IMPDH2dm-expressing Line E cells; assay type: cell-based, human; conditions: 1 uM MPA

COc1c(C)c2c(c(O)c1C/C=C(\C)CCC(=O)O)C(=O)OC2 [MPA, mycophenolic acid] was tested. Which “survival and/or proliferation in MPA” value (control T cell line) did it give?
Its value is “inhibition”.

And the “survival and/or proliferation in MPA” value [1]?
The value was “not inhibited”.
